Laboratory results reported in patent publication US20260069725A1, “LIGAND COMPOUND TARGETING PSMA ANTIGEN, AND CHELATE AND USE THEREOF IN DIAGNOSIS AND TREATMENT OF PROSTATE CANCER” (Chengdu StarRay Therapeutics Co., Ltd, priority 2021, published 2026).

Key:
LNCaP tumor bearing mice [1] = test: SPECT/CT scanning, exposure of 177Lu labeled compounds in tumor and tissues; assay type: in vivo
Method: The ^177Lu labeled precursor compound was diluted to 7.4 MBq (200 μCi)/200 […] with normal saline, and each tumor bearing mouse was given about 7.4 MBq (200 μCi) of the drug via tail vein injection. SPECT/CT scanning was performed on the mice at 1, 4, 8, 24, 48 and 72 h after administration, respectively, with the mice under continuous anesthesia with isoflurane, lying prone on an examination bed. The acquisition method was static imaging 12 min SPECT, and medium resolution whole-body imaging CT. During the process, according to the recording table, the animal body weight, injection dose, injection time and residual dose were recorded, and the time of measuring the injection dose and the time of measuring the residual dose were recorded respectively. After scanning, the data were reconstructed, PMOD software was used to analyze and delineate each organ tissue and quantify the drug distribution therein, the images and data were saved, and the data were further subjected to statistical analysis.
Drug exposure in each tissue was calculated (Table 1, where the values involving PSMA-D were the predicted values).

LNCaP tumor bearing mice [2] = test: Inhibition on tumor; assay type: in vivo; details: 14.8 MBq (400 μCi)
Method: PSMA positive LNCaP cells were proliferated and harvested, and then inoculated subcutaneously in mice at an amount of 1×10^7/mouse. When the tumors grew to 200-400 mm^3, the mice were randomly grouped according to the tumor size (3-4 mice in each group), and were given the compound (400 μCi) of the present invention labeled with […] or the positive control compound PSMA-617 labeled with ^177Lu via tail vein injection, respectively. The tumor sizes and body weights of the mice were measured every 3 days after administration, and the death of the mice was recorded. The control group and the administration group were compared to understand the inhibition on LNCaP tumors by different drugs. On day 6 after administration, SPECT/CT scanning was performed on the administration group to understand the exposure of different drugs at the tumor sites during the treatment.

[3] = labeled with 177Lu, about 7.4 MBq (200 μCi) tail vein, scans 1-72 h

SMILES	Exposure in Bladder (LNCaP tumor bearing mice [1]; [3]) [h*ID %/g]	Exposure in Bone (LNCaP tumor bearing mice [1]; [3]) [h*ID %/g]	Exposure in Heart (LNCaP tumor bearing mice [1]; [3]) [h*ID %/g]	Exposure in Kidney (LNCaP tumor bearing mice [1]; [3]) [h*ID %/g]	Exposure in Liver (LNCaP tumor bearing mice [1]; [3]) [h*ID %/g]	Exposure in Lung (LNCaP tumor bearing mice [1]; [3]) [h*ID %/g]	Exposure in Muscle (LNCaP tumor bearing mice [1]; [3]) [h*ID %/g]	Exposure in Spleen (LNCaP tumor bearing mice [1]; [3]) [h*ID %/g]	Exposure in Tumor (LNCaP tumor bearing mice [1]; [3]) [h*ID %/g]	further results
O=C(O)CC[C@H](NC(=O)N[C@@H](CCCCNC(=O)[C@H](Cc1ccc2ccccc2c1)NC(=O)[C@H]1CC[C@H](CNC(=O)CN2CCN(CC(=O)O)CCN(CC(=O)O)CCN(CC(=O)O)CC2)CC1)C(=O)O)C(=O)O [PSMA-617, reference compound]	553.2	9.939	23.31	77.45	48.92	40.93	36.36	54.27	346.9	–
COc1ccc(CCCC(=O)NC(CCCNC(=N)N)C(=O)N[C@@H](CCCCNC(=O)CN2CCN(CC(=O)O)CCN(CC(=O)O)CCN(CC(=O)O)CC2)C(=O)NCC2CCC(C(=O)N[C@@H](Cc3ccc4ccccc4c3)C(=O)NCCCC[C@H](NC(=O)N[C@@H](CCC(=O)O)C(=O)O)C(=O)O)CC2)cc1 (stereo partly drawn) [PSMA-A]	310.2	40.07	50.46	206	101.6	35.49	17.65	42.25	235	–
COc1ccc(CCCC(=O)NC(Cc2c[nH]cn2)C(=O)N[C@@H](CCCCNC(=O)CN2CCN(CC(=O)O)CCN(CC(=O)O)CCN(CC(=O)O)CC2)C(=O)NCC2CCC(C(=O)N[C@@H](Cc3ccc4ccccc4c3)C(=O)NCCCC[C@H](NC(=O)N[C@@H](CCC(=O)O)C(=O)O)C(=O)O)CC2)cc1 (stereo partly drawn) [PSMA-B]	157.3	20.62	54.22	330.5	53.28	50.04	32.14	31.81	370	–
COc1ccc(CCCC(=O)NC(CCCCN)C(=O)N[C@@H](CCCCNC(=O)CN2CCN(CC(=O)O)CCN(CC(=O)O)CCN(CC(=O)O)CC2)C(=O)NCC2CCC(C(=O)N[C@@H](Cc3ccc4ccccc4c3)C(=O)NCCCC[C@H](NC(=O)N[C@@H](CCC(=O)O)C(=O)O)C(=O)O)CC2)cc1 (stereo partly drawn) [PSMA-C]	100.8	32.01	38.58	178.7	49.61	31.55	17.82	29.2	131.9	–
COc1ccc(CCCC(=O)NC(CO)C(=O)N[C@@H](CCCCNC(=O)CN2CCN(CC(=O)O)CCN(CC(=O)O)CCN(CC(=O)O)CC2)C(=O)NCC2CCC(C(=O)N[C@@H](Cc3ccc4ccccc4c3)C(=O)NCCCC[C@H](NC(=O)N[C@@H](CCC(=O)O)C(=O)O)C(=O)O)CC2)cc1 (stereo partly drawn) [PSMA-D]	–	–	–	–	–	–	–	–	–	Exposure in Bladder (LNCaP tumor bearing mice [1]; predicted values (PSMA-D)): 200-800 h*ID %/g; Exposure in Bone (LNCaP tumor bearing mice [1]; predicted values (PSMA-D)): 10-80 h*ID %/g; Exposure in Heart (LNCaP tumor bearing mice [1]; predicted values (PSMA-D)): 20-100 h*ID %/g; Exposure in Kidney (LNCaP tumor bearing mice [1]; predicted values (PSMA-D)): 50-500 h*ID %/g; Exposure in Liver (LNCaP tumor bearing mice [1]; predicted values (PSMA-D)): 50-200 h*ID %/g; Exposure in Lung (LNCaP tumor bearing mice [1]; predicted values (PSMA-D)): 20-200 h*ID %/g; Exposure in Muscle (LNCaP tumor bearing mice [1]; predicted values (PSMA-D)): 20-100 h*ID %/g; Exposure in Spleen (LNCaP tumor bearing mice [1]; predicted values (PSMA-D)): 20-100 h*ID %/g; Exposure in Tumor (LNCaP tumor bearing mice [1]; predicted values (PSMA-D)): 200-1000 h*ID %/g
COc1ccc(CCCC(=O)NC(CCC(N)=O)C(=O)N[C@@H](CCCCNC(=O)CN2CCN(CC(=O)O)CCN(CC(=O)O)CCN(CC(=O)O)CC2)C(=O)NCC2CCC(C(=O)N[C@@H](Cc3ccc4ccccc4c3)C(=O)NCCCC[C@H](NC(=O)N[C@@H](CCC(=O)O)C(=O)O)C(=O)O)CC2)cc1 (stereo partly drawn) [PSMA-E]	710.2	51.75	19.52	239	31.19	14.87	25.53	46.74	473.6	–
O=C(O)CCCCCCCCCCCCCCC(=O)N[C@@H](CCCCNC(=O)CN1CCN(CC(=O)O)CCN(CC(=O)O)CCN(CC(=O)O)CC1)C(=O)NCC1CCC(C(=O)N[C@@H](Cc2ccc3ccccc3c2)C(=O)NCCCC[C@H](NC(=O)N[C@@H](CCC(=O)O)C(=O)O)C(=O)O)CC1 (stereo partly drawn) [PSMA-F]	633.7	94.85	581.6	669.2	263.1	348.3	253.3	55.76	1394	–
O=C(O)CCCCCCCCCCCCC(=O)N[C@@H](CCCCNC(=O)CN1CCN(CC(=O)O)CCN(CC(=O)O)CCN(CC(=O)O)CC1)C(=O)NCC1CCC(C(=O)N[C@@H](Cc2ccc3ccccc3c2)C(=O)NCCCC[C@H](NC(=O)N[C@@H](CCC(=O)O)C(=O)O)C(=O)O)CC1 (stereo partly drawn) [PSMA-G]	935.9	54.86	123.9	1589	193.2	86.51	71.89	83.39	226.4	–
O=C(O)CCCCCCCCCCC(=O)N[C@@H](CCCCNC(=O)CN1CCN(CC(=O)O)CCN(CC(=O)O)CCN(CC(=O)O)CC1)C(=O)NCC1CCC(C(=O)N[C@@H](Cc2ccc3ccccc3c2)C(=O)NCCCC[C@H](NC(=O)N[C@@H](CCC(=O)O)C(=O)O)C(=O)O)CC1 (stereo partly drawn) [PSMA-H]	1135	22.69	63.71	575	72.88	56.76	35.74	62.06	441.2	–
COc1ccc(C(=O)N[C@@H](CCCCNC(=O)CN2CCN(CC(=O)O)CCN(CC(=O)O)CCN(CC(=O)O)CC2)C(=O)NCC2CCC(C(=O)N[C@@H](Cc3ccc4ccccc4c3)C(=O)NCCCC[C@H](NC(=O)N[C@@H](CCC(=O)O)C(=O)O)C(=O)O)CC2)cc1 (stereo partly drawn) [PSMA-I]	831.9	50.24	23.61	776.8	55.24	31.12	62.66	65.02	95.56	–
COc1ccc(C(=O)NCCN2CCN(C(=O)CCC(=O)N[C@@H](CCCCNC(=O)CN3CCN(CC(=O)O)CCN(CC(=O)O)CCN(CC(=O)O)CC3)C(=O)NCC3CCC(C(=O)N[C@@H](Cc4ccc5ccccc5c4)C(=O)NCCCC[C@H](NC(=O)N[C@@H](CCC(=O)O)C(=O)O)C(=O)O)CC3)CC2)cc1 (stereo partly drawn) [PSMA-K]	585.9	32.71	54.52	79.78	314.2	278.5	26.77	83.81	281	–
COc1ccc(C(=O)NCCN2CCN(C(=O)CCC(=O)N[C@@H](CCCCNC(=O)CN3CCN(CC(=O)O)CCN(CC(=O)O)CCN(CC(=O)O)CC3)C(=O)N3CCc4cc(C(=O)N[C@@H](Cc5ccc6ccccc6c5)C(=O)NCCCC[C@H](NC(=O)N[C@@H](CCC(=O)O)C(=O)O)C(=O)O)ccc4C3)CC2)cc1 [PSMA-L]	499.3	15.5	40.58	148.8	62.47	51.83	37.2	34.43	1350	drug exposure in the LNCaP tumor, in words (LNCaP tumor bearing mice [1]; in contrast to PSMA-617): greatly increase the drug exposure in the LNCaP tumor; exposure in the normal tissues, in words (LNCaP tumor bearing mice [1]; in contrast to PSMA-617): kept at a lower level
O=C([O-])CN1CCN(CC(=O)[O-])CCN(CC(=O)NCC2CCC(C(=O)N[C@@H](Cc3ccc4ccccc4c3)C(=O)NCCCC[C@H](NC(=O)N[C@@H](CCC(=O)O)C(=O)O)C(=O)O)CC2)CCN(CC(=O)[O-])CC1.[177Lu+3] (stereo partly drawn) [^177Lu-PSMA-617]	–	–	–	–	–	–	–	–	–	body weight of the animals during the treatment (LNCaP tumor bearing mice [2]): no significant difference
